{"source": "the CATMoS acute toxicity set (Mansouri et al. 2021)", "origin": "cited, not measured here", "note": "“And” between values parts separate entries of the source, which are not always exact repeats. Equal entries are not always repeated.", "data": [{"assay": "rat acute oral toxicity", "settings": "in vivo", "values": [{"smiles": "CN(SSC(C)(C)C)C(=O)ON=C1SC(C)(C)C(=O)N1C", "LD50": "299 mg/kg"}, {"smiles": "CCCC(C)OP(=S)(OC)OC", "note": "(stereo not drawn)", "LD50": "311 mg/kg"}, {"smiles": "CC(=Nc1c(I)cc(I)c(C(=O)NCC(C)C(=O)O)c1I)N1CCOCC1", "note": "(stereo not drawn)", "LD50": "15000 mg/kg and 7000 mg/kg"}, {"smiles": "C/C=C/C=C/C(=O)O", "LD50": "7360 mg/kg and 4340 mg/kg and 7160 mg/kg"}, {"smiles": "C#CC(OC(=O)C1C(C=C(C)C)C1(C)C)/C(C)=C/CC", "note": "(stereo not drawn)", "LD50": "1680 mg/kg"}, {"smiles": "CC[C@@H](CO)NC(=O)[C@@H]1C=C2c3cccc4c3c(cn4C)C[C@H]2N(C)C1", "LD50": "2100 mg/kg"}, {"smiles": "CC(=O)CC1OCC(CCl)O1", "note": "(stereo not drawn)", "LD50": "120 mg/kg"}, {"smiles": "Cn1c(=O)c2c(ncn2CCCN2CCN(CCCSc3ccccc3)CC2)n(C)c1=O", "LD50": "1600 mg/kg"}, {"smiles": "O=C=Nc1ccc([N+](=O)[O-])cc1", "LD50": "1600 mg/kg"}, {"smiles": "CNC(=O)Oc1ccccc1C(OC)OC", "LD50": "160 mg/kg"}, {"smiles": "CCOC(C1=NCC(C)(CC)CN1)c1ccc(Cl)cc1", "note": "(stereo not drawn)", "LD50": "110 mg/kg"}, {"smiles": "CNC(=O)Oc1cccc(N=CN(C)C)c1", "LD50": "20 mg/kg"}, {"smiles": "ClC(Cl)(Br)CBr", "LD50": "205 mg/kg"}, {"smiles": "FCCBr", "LD50": "5 mg/kg"}, {"smiles": "CCN(CC)CCOC(=O)c1ccc(NCc2c(CO)cnc(C)c2O)cc1", "LD50": "5900 mg/kg"}, {"smiles": "CC(C)=CC(NC(=O)C1=C([O-])c2sc(Cl)cc2S(=O)(=O)N1C)[n+]1ccccc1", "note": "(stereo not drawn)", "LD50": "10 mg/kg"}, {"smiles": "O=C(O)COc1ccccc1", "LD50": "1500 mg/kg"}, {"smiles": "CCOP(=O)(OCC)O/C(=C\\Cl)c1cc(Cl)ccc1Cl", "LD50": "35 mg/kg"}, {"smiles": "CCCCC(CC)CCC(CCC(CC)CC)OS(=O)(=O)O", "note": "(stereo not drawn)", "LD50": "1430 mg/kg"}, {"smiles": "COP(=S)(OC)SC(CBr)N1C(=O)c2ccccc2C1=O", "note": "(stereo not drawn)", "LD50": "188 mg/kg"}, {"smiles": "CCCCCCCCOC(C)=O", "LD50": "3000 mg/kg"}, {"smiles": "COC(=O)C1(O)c2ccccc2-c2ccc(Cl)cc21", "note": "(stereo not drawn)", "LD50": "3100 mg/kg"}, {"smiles": "O=S1c2ccccc2N(CCCN2CCN(CCO)CC2)c2cc(Cl)ccc21", "note": "(stereo not drawn)", "LD50": "1000 mg/kg"}, {"smiles": "CN1C(=O)CN=C(c2ccccc2F)c2cc(Cl)ccc21", "LD50": "1740 mg/kg"}, {"smiles": "Nc1ccc2c(c1)Cc1cc(N)ccc1-2", "LD50": "1070 mg/kg"}, {"smiles": "CN(C)CCN(Cc1ccccc1)c1ccccc1", "LD50": "300 mg/kg"}, {"smiles": "O=C(O)C(Cl)Cl", "LD50": "5280 mg/kg and 2820 mg/kg"}, {"smiles": "CCCSP(=O)(OCC)Oc1cnn(-c2ccc(Cl)cc2)c1", "note": "(stereo not drawn)", "LD50": "237 mg/kg"}, {"smiles": "COC(=O)Nc1nc2ccccc2[nH]1", "LD50": "6400 mg/kg and 12500 mg/kg and 7500 mg/kg"}, {"smiles": "C=CCn1c(=O)[nH]c(=O)n(CC=C)c1=O", "LD50": "930 mg/kg"}, {"smiles": "CC(=O)CC(c1ccc([N+](=O)[O-])cc1)c1c(O)c2ccccc2oc1=O", "note": "(stereo not drawn)", "LD50": "513 mg/kg"}, {"smiles": "CCOCCC(OCC)OCC", "LD50": "1600 mg/kg"}, {"smiles": "CC[N+](C)(C)CCO", "LD50": "6930 mg/kg"}, {"smiles": "CC1(COCC2(C)CO2)CO1", "note": "(stereo not drawn)", "LD50": "1680 mg/kg"}, {"smiles": "CC(C)(C)c1cc(CCC(=O)NCCN)cc(C(C)(C)C)c1O", "LD50": "1560 mg/kg"}, {"smiles": "N#CCCN(CCO)c1ccccc1", "LD50": "3210 mg/kg"}, {"smiles": "Oc1ccc(C(c2ccc(O)cc2)(C(F)(F)F)C(F)(F)F)cc1", "LD50": "3400 mg/kg"}, {"smiles": "Cc1cc(C)nc(Nc2ccccc2)n1", "LD50": "4150 mg/kg"}, {"smiles": "CC(C)[N+](=O)[O-]", "LD50": "720 mg/kg"}, {"smiles": "CSCCC(OC(C)=O)C(=O)O", "note": "(stereo not drawn)", "LD50": "2340 mg/kg"}, {"smiles": "COc1ccc(S(=O)(=O)Nc2nnc(CC(C)C)s2)cc1", "LD50": "534 mg/kg"}, {"smiles": "O=C1CCc2cc(C(=O)CCCN3CC=C(c4ccc(Cl)cc4)CC3)ccc2N1", "LD50": "500 mg/kg"}, {"smiles": "CN(C)CCn1c2ccccc2c(=O)c2c([N+](=O)[O-])cccc21", "LD50": "41 mg/kg"}, {"smiles": "C=C1C[C@]23C[C@@]1(O)CC[C@H]2[C@@]12C=C[C@H](O)[C@@](C)(C(=O)O1)[C@H]2[C@@H]3C(=O)O", "LD50": "6300 mg/kg"}, {"smiles": "CC1(CCO)CCOCO1", "note": "(stereo not drawn)", "LD50": "8800 mg/kg"}, {"smiles": "Cc1ccc2c(c1)CC(=O)c1cc(C(C)C(=O)OCCOCCO)ccc1O2", "note": "(stereo not drawn)", "LD50": "219 mg/kg"}, {"smiles": "N#CCCSCCC#N", "LD50": "4210 mg/kg"}, {"smiles": "CCOC(=S)SSSC(=S)OCC", "LD50": "235 mg/kg"}, {"smiles": "CCOP(=S)(OCC)SC1OCCOC1SP(=S)(OCC)OCC", "note": "(stereo not drawn)", "LD50": "20 mg/kg"}, {"smiles": "CC(C)(C)c1cc([N+](=O)[O-])cc(C(C)(C)C)c1O", "LD50": "250 mg/kg"}, {"smiles": "COc1ccc2c(=O)c(C)c(-c3ccccc3)oc2c1CN(C)C", "LD50": "40 mg/kg and 14 mg/kg"}, {"smiles": "CO[Si](CCCNCCC[Si](OC)(OC)OC)(OC)OC", "LD50": "3780 mg/kg"}, {"smiles": "COP(=S)(OC)SC1CCC2C=CCC1S2", "note": "(stereo not drawn)", "LD50": "1000 mg/kg"}, {"smiles": "CCCCC(CC)COCCO", "note": "(stereo not drawn)", "LD50": "3080 mg/kg"}, {"smiles": "CCS(=O)CCOP(=S)(OC)OC", "note": "(stereo not drawn)", "LD50": "600 mg/kg"}, {"smiles": "CN(C)N=O", "LD50": "37 mg/kg"}, {"smiles": "O=P(O)(O)CN(CP(=O)(O)O)CP(=O)(O)O", "LD50": "17800 mg/kg"}, {"smiles": "Cc1ccc(C(=O)c2ccc(CC(=O)O)n2C)cc1", "LD50": "293 mg/kg"}, {"smiles": "CN(C)C/C=C(/c1ccc(Br)cc1)c1cccnc1", "LD50": "900 mg/kg and 844 mg/kg"}, {"smiles": "COC(=O)[C@H]1[C@H]2C[C@@H]3c4[nH]c5cc(OC)ccc5c4CCN3C[C@H]2C[C@@H](OC(=O)C=Cc2cc(OC)c(OC)c(OC)c2)[C@@H]1OC", "LD50": "1000 mg/kg"}, {"smiles": "C1CN(SSSSN2CCOCC2)CCO1", "LD50": "4800 mg/kg"}, {"smiles": "CCSN(C)C(=O)Oc1cccc2c1OC(C)(C)C2", "LD50": "25 mg/kg"}, {"smiles": "O=[N+]([O-])C1(Br)COCOC1", "LD50": "455 mg/kg"}, {"smiles": "CCOC(=O)C(N)Cc1ccc(O)cc1", "note": "(stereo not drawn)", "LD50": "13800 mg/kg"}, {"smiles": "Cc1ccc(N=C=O)cc1", "LD50": "1600 mg/kg"}, {"smiles": "C[N+]1(CCC(C2=CCCCC2)c2ccccc2)CCCCC1", "note": "(stereo not drawn)", "LD50": "1700 mg/kg"}, {"smiles": "N#Cc1cccnc1", "LD50": "1180 mg/kg"}, {"smiles": "COP(=O)(OC)OC(C)=CC(=O)OCc1ccccc1", "LD50": "56 mg/kg"}, {"smiles": "CCOC(=O)C(C#N)C(C)=O", "note": "(stereo not drawn)", "LD50": "500 mg/kg"}, {"smiles": "CCn1nc(C(=O)O)c(=O)c2cc3c(cc21)OCO3", "LD50": "3610 mg/kg"}, {"smiles": "O=C(CCCl)OC1=C(OC(=O)CCCl)C(=O)OC1=O", "LD50": "7000 mg/kg"}, {"smiles": "O=[N+]([O-])c1nccs1", "LD50": "137 mg/kg"}, {"smiles": "NCC(O)c1ccc(O)cc1", "note": "(stereo not drawn)", "LD50": "1240 mg/kg and 1090 mg/kg"}]}]}
